Values after ≈ are worked out from the molar mass of the structure shown. Like-named read-outs stand apart in the source and are kept apart here.
Legend:
[1] = Solvent mixture solubility tests of (Z)-endoxifen; type: physicochemical
Experimental: To test the solubility of (Z)-endoxifen in varying conditions, 10 mg of (Z)-endoxifen was added to a stoppered tube, and 0.01 ml of the selected solvent was added (1000 mg/ml solution). The tube was shaken vigorously for 1 minute and then incubated at a constant temperature of 25.0° C. for 15 minutes. If the solid was not completed dissolved, the tube was shaken again and placed at the constant temperature of 25.0° C. for another 15 minutes. If the solid was completely dissolved at this step, it was considered to be very soluble in the selected solvent system. If the solid was not dissolved by this step, another 0.09 ml was added (yielding a 100 mg/ml solution) and an attempt to further dissolve the solid was made by the same steps of shaking and incubating twice over as described previously. If the solid was completely dissolved at this step, it was considered freely soluble. If the solid was not dissolved by this step another 0.2 ml was added (yielding a 33.3 mg/ml solution) and an attempt to further dissolve the solid was made by the same steps of shaking and incubating twice over as described previously. If the solid was completely dissolved at this step, it was considered soluble. If the solid was not dissolved by this step another, 0.7 ml was added (yielding a 10 mg/ml solution) and an attempt to further dissolve the solid was made by the same steps of shaking and incubating twice over as described previously. If the solid was completely dissolved at this step, it was considered sparingly soluble. If the solid was not dissolved by this step the sample was considered to be slightly soluble or very slightly soluble and the solution was heated until the boiling point of the solvent system (max 100° C.) under stirring with a rate of 0.5° C. per minute temperature ramp rate to verify the solubility at high temperatures. The hot solution was after cooled to room temperature with a cooling rate of 0.5° C. per minute to verify if the sample had precipitated after up to 18 hours under magnetic stirring. The same procedure was also used for the solvent mixture solubility tests. The concentrations investigated for the solvent mixture stability were 40 mg/ml and 100 mg/ml. Some solutions in the following example were precipitated by cooling of the solution from a temperature between 50-100° C. to between 10-25° C. at a rate ranging from −0.2 to −0.5° C./minute resulting in a precipitate.

[2] = Competitive slurries of (Z)-endoxifen polymorphs (XRPD); type: physicochemical; settings: slurries of Forms I, IV and VII in various solvents, 3 days at room temperature or 24 hours at high temperature
Experimental: This example covers conversions of (Z)-endoxifen polymorphs in solvent slurries. Slurries of Forms I and VII were generated with Forms I, IV, and VII in various solvents, and incubated for either 3 days at room temperature or for 24 hours at high temperature. Following these incubations, polymorphs were collected from the slurries and characterized by XRPD.

[3] = 2-propanol/tetrahydrofuran 95/5 v/v, 40 mg/mL
[4] = acetone/2-propanol 67/33 v/v, 40 mg/mL
[5] = acetone/tetrahydrofuran 95/5 v/v, 40 mg/mL
[6] = ethyl acetate/2-propanol 50/50 v/v, 100 mg/mL
[7] = ethyl acetate/tetrahydrofuran 95/5 v/v, 40 mg/mL
[8] = heptane/2-propanol 50/50 v/v, 40 mg/mL

CC/C(=C(\c1ccc(O)cc1)c1ccc(OCCNC)cc1)c1ccccc1 [(Z)-endoxifen, (Z)-4-(1-(4-(2-(methylamino)ethoxy)phenyl)-2-phenylbut-1-enyl)phenol]
solubility ([1]; 2-propanol/THF (95/5 v/v), organic solvent or mixture, thermodynamic from solid, 2-propanol/THF (95/5 v/v), high temperature, precipitated during cooling, read-out: Solubility): 40 mg/mL (≈ 107 mM)
solubility ([1]; 2-propanol/tetrahydrofuran 95/5 v/v, organic solvent or mixture, thermodynamic from solid, 2-propanol/tetrahydrofuran 95/5 v/v, 100 mg/mL, high temperature, read-out: Solubility HT (100 mg/mL): Sol. HT): < 100 mg/mL
Solubility HT (40 mg/mL): Clear point [1, 3]: 52.8 °C
Solubility HT (40 mg/mL): Cloudy point [1, 3]: 28.6 °C
Solubility HT (40 mg/mL): Sol. HT ([1]; 2-propanol/tetrahydrofuran 95/5 v/v, 40 mg/mL, high temperature): YES
Solubility HT (40 mg/mL): Re-PPT ([1]; 2-propanol/tetrahydrofuran 95/5 v/v, 40 mg/mL, on cooling): YES
solubility ([1]; acetone/2-propanol 67/33 v/v, organic solvent or mixture, thermodynamic from solid, acetone/2-propanol 67/33 v/v, 100 mg/mL, high temperature, read-out: Solubility HT (100 mg/mL): Sol. HT): < 100 mg/mL
Solubility HT (40 mg/mL): Clear point [1, 4]: 36.8 °C
Solubility HT (40 mg/mL): Re-PPT after 18 hours at −20° C. [1, 4]: YES
Solubility HT (40 mg/mL): Sol. HT ([1]; acetone/2-propanol 67/33 v/v, 40 mg/mL, high temperature): YES
solubility ([1]; acetone/2-propanol (63/37 v/v), high temperature, precipitated after 18 hours at −20° C.): soluble
solubility ([1]; acetone/THF (95/5 v/v), high temperature, precipitated after 18 hours at −20° C.): soluble
solubility ([1]; acetone/acetonitrile 50/50 v/v, organic solvent or mixture, thermodynamic from solid, acetone/acetonitrile 50/50 v/v, 40 mg/mL, high temperature, read-out: Solubility HT (40 mg/mL): Sol. HT): < 40 mg/mL
solubility ([1]; acetone/acetonitrile 50/50 v/v, organic solvent or mixture, thermodynamic from solid, acetone/acetonitrile 50/50 v/v, 100 mg/mL, high temperature, read-out: Solubility HT (100 mg/mL): Sol. HT): < 100 mg/mL
solubility ([1]; acetone/acetonitrile (50/50 v/v), organic solvent or mixture, thermodynamic from solid, acetone/acetonitrile (50/50 v/v), high temperature, read-out: Solubility): < 40 mg/mL
solubility ([1]; acetone/ethyl acetate 50/50 v/v, organic solvent or mixture, thermodynamic from solid, acetone/ethyl acetate 50/50 v/v, 40 mg/mL, high temperature, read-out: Solubility HT (40 mg/mL): Sol. HT): < 40 mg/mL
solubility ([1]; acetone/ethyl acetate 50/50 v/v, organic solvent or mixture, thermodynamic from solid, acetone/ethyl acetate 50/50 v/v, 100 mg/mL, high temperature, read-out: Solubility HT (100 mg/mL): Sol. HT): < 100 mg/mL
solubility ([1]; acetone/ethyl acetate (50/50 v/v), organic solvent or mixture, thermodynamic from solid, acetone/ethyl acetate (50/50 v/v), high temperature, read-out: Solubility): < 40 mg/mL
solubility ([1]; acetone/tetrahydrofuran 95/5 v/v, organic solvent or mixture, thermodynamic from solid, acetone/tetrahydrofuran 95/5 v/v, 100 mg/mL, high temperature, read-out: Solubility HT (100 mg/mL): Sol. HT): < 100 mg/mL
Solubility HT (40 mg/mL): Clear point [1, 5]: 47.5 °C
Solubility HT (40 mg/mL): Re-PPT after 18 hours at −20° C. [1, 5]: YES
Solubility HT (40 mg/mL): Sol. HT ([1]; acetone/tetrahydrofuran 95/5 v/v, 40 mg/mL, high temperature): YES
solubility ([1]; butyl ethyl ether/methanol (50/50 v/v), organic solvent or mixture, thermodynamic from solid, butyl ethyl ether/methanol (50/50 v/v), high temperature, read-out: Solubility): 40 to 100 mg/mL (≈ 107 to 268 mM)
solubility ([1]; butyl methyl ether/methanol 50/50 v/v, organic solvent or mixture, thermodynamic from solid, butyl methyl ether/methanol 50/50 v/v, 100 mg/mL, high temperature, read-out: Solubility HT (100 mg/mL): Sol. HT): < 100 mg/mL
Solubility HT (40 mg/mL): Clear point ([1]; butyl methyl ether/methanol 50/50 v/v, 40 mg/mL): 31.8 °C
Solubility HT (40 mg/mL): Sol. HT ([1]; butyl methyl ether/methanol 50/50 v/v, 40 mg/mL, high temperature): YES
Solubility HT (100 mg/mL): Clear point [1, 6]: 59.8 °C
Solubility HT (100 mg/mL): Cloudy point [1, 6]: 25 °C
Solubility HT (100 mg/mL): Sol. HT ([1]; ethyl acetate/2-propanol 50/50 v/v, 100 mg/mL, high temperature): YES
Solubility HT (100 mg/mL): Re-PPT ([1]; ethyl acetate/2-propanol 50/50 v/v, 100 mg/mL, on cooling): YES
solubility ([1]; ethyl acetate/2-propanol (50/50 v/v), organic solvent or mixture, thermodynamic from solid, ethyl acetate/2-propanol (50/50 v/v), high temperature, precipitated during cooling, read-out: Solubility): 100 mg/mL (≈ 268 mM)
solubility ([1]; ethyl acetate/THF (95/5 v/v), organic solvent or mixture, thermodynamic from solid, ethyl acetate/THF (95/5 v/v), high temperature, precipitated during cooling, read-out: Solubility): 40 mg/mL (≈ 107 mM)
solubility ([1]; ethyl acetate/tetrahydrofuran 95/5 v/v, organic solvent or mixture, thermodynamic from solid, ethyl acetate/tetrahydrofuran 95/5 v/v, 100 mg/mL, high temperature, read-out: Solubility HT (100 mg/mL): Sol. HT): < 100 mg/mL
Solubility HT (40 mg/mL): Clear point [1, 7]: 56.3 °C
Solubility HT (40 mg/mL): Cloudy point [1, 7]: 51.3 °C
Solubility HT (40 mg/mL): Sol. HT ([1]; ethyl acetate/tetrahydrofuran 95/5 v/v, 40 mg/mL, high temperature): YES
Solubility HT (40 mg/mL): Re-PPT ([1]; ethyl acetate/tetrahydrofuran 95/5 v/v, 40 mg/mL, on cooling): YES
solubility ([1]; heptane/2-propanol 50/50 v/v, organic solvent or mixture, thermodynamic from solid, heptane/2-propanol 50/50 v/v, 100 mg/mL, high temperature, read-out: Solubility HT (100 mg/mL): Sol. HT): < 100 mg/mL
Solubility HT (40 mg/mL): Clear point [1, 8]: 64.5 °C
Solubility HT (40 mg/mL): Cloudy point [1, 8]: 33.7 °C
Solubility HT (40 mg/mL): Sol. HT ([1]; heptane/2-propanol 50/50 v/v, 40 mg/mL, high temperature): YES
Solubility HT (40 mg/mL): Re-PPT ([1]; heptane/2-propanol 50/50 v/v, 40 mg/mL, on cooling): YES
solubility ([1]; heptane/2-propanol (50/50 v/v), organic solvent or mixture, thermodynamic from solid, heptane/2-propanol (50/50 v/v), high temperature, precipitated during cooling, read-out: Solubility): 40 mg/mL (≈ 107 mM)
solubility ([1]; heptane/ethyl acetate 50/50 v/v, organic solvent or mixture, thermodynamic from solid, heptane/ethyl acetate 50/50 v/v, 40 mg/mL, high temperature, read-out: Solubility HT (40 mg/mL): Sol. HT): < 40 mg/mL
solubility ([1]; heptane/ethyl acetate 50/50 v/v, organic solvent or mixture, thermodynamic from solid, heptane/ethyl acetate 50/50 v/v, 100 mg/mL, high temperature, read-out: Solubility HT (100 mg/mL): Sol. HT): < 100 mg/mL
solubility ([1]; heptane/ethyl acetate (50/50 v/v), organic solvent or mixture, thermodynamic from solid, heptane/ethyl acetate (50/50 v/v), high temperature, read-out: Solubility): < 40 mg/mL
solubility ([1]; heptane/toluene 50/50 v/v, organic solvent or mixture, thermodynamic from solid, heptane/toluene 50/50 v/v, 40 mg/mL, high temperature, read-out: Solubility HT (40 mg/mL): Sol. HT): < 40 mg/mL
solubility ([1]; heptane/toluene 50/50 v/v, organic solvent or mixture, thermodynamic from solid, heptane/toluene 50/50 v/v, 100 mg/mL, high temperature, read-out: Solubility HT (100 mg/mL): Sol. HT): < 100 mg/mL
solubility ([1]; heptane/toluene (50/50 v/v), organic solvent or mixture, thermodynamic from solid, heptane/toluene (50/50 v/v), high temperature, read-out: Solubility): < 40 mg/mL
solubility ([1]; water/2-propanol 50/50 v/v, aqueous with cosolvent or surfactant or cyclodextrin, thermodynamic from solid, water/2-propanol 50/50 v/v, 40 mg/mL, high temperature, read-out: Solubility HT (40 mg/mL): Sol. HT): < 40 mg/mL
solubility ([1]; water/2-propanol 50/50 v/v, aqueous with cosolvent or surfactant or cyclodextrin, thermodynamic from solid, water/2-propanol 50/50 v/v, 100 mg/mL, high temperature, read-out: Solubility HT (100 mg/mL): Sol. HT): < 100 mg/mL
solubility ([1]; water/2-propanol (50/50 v/v), aqueous with cosolvent or surfactant or cyclodextrin, thermodynamic from solid, water/2-propanol (50/50 v/v), high temperature, read-out: Solubility): < 40 mg/mL
solubility ([1]; water/THF (50/50 v/v), aqueous with cosolvent or surfactant or cyclodextrin, thermodynamic from solid, water/THF (50/50 v/v), high temperature, read-out: Solubility): < 40 mg/mL
solubility ([1]; water/acetonitrile 50/50 v/v, aqueous with cosolvent or surfactant or cyclodextrin, thermodynamic from solid, water/acetonitrile 50/50 v/v, 40 mg/mL, high temperature, read-out: Solubility HT (40 mg/mL): Sol. HT): < 40 mg/mL
solubility ([1]; water/acetonitrile 50/50 v/v, aqueous with cosolvent or surfactant or cyclodextrin, thermodynamic from solid, water/acetonitrile 50/50 v/v, 100 mg/mL, high temperature, read-out: Solubility HT (100 mg/mL): Sol. HT): < 100 mg/mL
solubility ([1]; water/acetonitrile (50/50 v/v), aqueous with cosolvent or surfactant or cyclodextrin, thermodynamic from solid, water/acetonitrile (50/50 v/v), high temperature, read-out: Solubility): < 40 mg/mL
solubility ([1]; water/tetrahydrofuran 95/5 v/v, aqueous with cosolvent or surfactant or cyclodextrin, thermodynamic from solid, water/tetrahydrofuran 95/5 v/v, 40 mg/mL, high temperature, read-out: Solubility HT (40 mg/mL): Sol. HT): < 40 mg/mL
solubility ([1]; water/tetrahydrofuran 95/5 v/v, aqueous with cosolvent or surfactant or cyclodextrin, thermodynamic from solid, water/tetrahydrofuran 95/5 v/v, 100 mg/mL, high temperature, read-out: Solubility HT (100 mg/mL): Sol. HT): < 100 mg/mL
Polymorphic form recovered (XRPD) [2]: majority of slurries yielded high purity Form I, some of the slurries yielded Form I with traces of Form IV or Form VII, and six slurries yielded primarily Form IV
